{"source": "patent US20250255847A1", "about": "“[…]s: Novel Drugs for Triple Negative Breast Cancer” (SIMMARON RSEARCH INC, priority 2024, published 2025)", "key": {"[1]": {"tested_on": "MDA-MB-468 TNBC cells", "experiment": "LDH release cytotoxicity assay in MDA-MB-468 cells", "assay_type": "cell-based, human", "conditions": "48 hrs; for pEC50: Homo sapiens, MDA-MB-468, LDH release, read-out: CT50 (half-response of cytotoxicity)", "experimental": "FIG. 11 illustrates an embodiment of the present invention and illustrates SIM-1 and SIM-2 induced apoptosis in MDA-MB-468 TNBC cells, but not HMEC control cells. MDA-MB-468 cells were treated with increasing doses of (A) SIM-1 and (B) SIM-2 for 48 hrs followed by lactate dehydrogenase (LDH) release assay in the supernatants. The result was offset with cell-bound LDH and presented as a percent of DMSO control as discussed under method section. Half-maximal cytotoxicity or CT50 analyses were performed plotting maximum response as an index of increasing doses of (C) SIM-1 and (D) SIM-2. AnnexinV (green) and propidium iodide (red) dual-labeling were performed to evaluate apoptotic response in MDA-MB-468 cells once treated with increasing doses of (E) SIM-1 and (F) SIM-2 for 24 hrs. Nuclei were stained with DAPI. TUNEL assay was performed in MDA-MB-468 cells after treatment with 25 nM of (G) SIM-1. Brown-colored TUNEL bodies were visualized at cresyl violet-stained blue nuclei. (H) The number of TUNEL bodies were counted as a percent of 100 cresyl violet-stained blue cells. Ten independent images were counted for the quantification study. Similarly, SIM-2 was assessed for (I) TUNEL and (J) subsequent quantification analyses. One-way ANOVA was performed to test the significance of mean between groups at **p<0.01 and ****p<0.0001. (K) LDH release assay was performed in non-tumor origin human mammary epithelial cells (HMEC) once treated with increasing doses of SIM-1 and SIM-2 for 48 hrs. Ns=no significance. (L) Annexin V (green) and propidium iodide (red) staining was performed in 25 nM SIM-1- and SIM-2-treated HMEC cells. Nuclei were stained with DAPI. Results are confirmed after three different experiments.\nLDH Assay. LDH Assay was performed as per manufacturer's instructions (Cat #: 2570393; Vendor: Thermo Fisher Scientific). MDA-MB-468 and HMEC cells were treated with SIMPYRA-1 and SIMPYRA-2 at doses of 2 nM, 5 nM, […] 25 nM. Each dose was measured in triplicates. After 48 hours of incubation at 37° C., 50 μL of soup from each well was harvested and transferred into a new 96 well plate. Each well was treated with 50 μL of reaction mix (Substrate Mixture+deionized water+Assay Buffer). The reaction was stopped with 50 μL of Stop Solution. The plate was read at 490 nm (background at 680 nm).\n(§1) This example provides a representative experiment that studies if SIM-1 and SIM-2 promoted the death of TNBC cells. The following experiments were adopted to confirm the apoptosis of TNBC cells. […] During apoptosis, phosphatidyl serine of the plasma membrane flips from the inner to the outer membrane which can be detected by Annexin V labeling, whereas PI stains the nucleus of a cell with compromised integrity of the plasma membrane. […]"}, "[2]": {"tested_on": "MDA-MB-468 cells", "experiment": "TUNEL assay in MDA-MB-468 cells", "assay_type": "cell-based, human", "conditions": "25 nM", "experimental": "FIG. 11 illustrates an embodiment of the present invention and illustrates SIM-1 and SIM-2 induced apoptosis in MDA-MB-468 TNBC cells, but not HMEC control cells. MDA-MB-468 cells were treated with increasing doses of (A) SIM-1 and (B) SIM-2 for 48 hrs followed by lactate dehydrogenase (LDH) release assay in the supernatants. The result was offset with cell-bound LDH and presented as a percent of DMSO control as discussed under method section. Half-maximal cytotoxicity or CT50 analyses were performed plotting maximum response as an index of increasing doses of (C) SIM-1 and (D) SIM-2. AnnexinV (green) and propidium iodide (red) dual-labeling were performed to evaluate apoptotic response in MDA-MB-468 cells once treated with increasing doses of (E) SIM-1 and (F) SIM-2 for 24 hrs. […] (H) The number of TUNEL bodies were counted as a percent of 100 cresyl violet-stained blue cells. Ten independent images were counted for the quantification study. Similarly, SIM-2 was assessed for (I) TUNEL and (J) subsequent quantification analyses. […]\nas §1, with “death” for “death of TNBC cells. The following experiments were adopted to confirm the apoptosis”"}}, "note": "pEC50: −log10 of the molar value."}
{"molecule": "O=C(O)CCC(=O)NCc1csc2ccc(Cl)cc12", "note": "[SIM-1, 4-[(5-chloro-1-benzothiophen-3-yl)methylamino]-4-oxobutanoic acid]", "values": [{"measurement": "concentration of maximum cell death (LDH release)", "setting": "[1]", "result": 20, "unit": "nM"}, {"measurement": "pEC50", "setting": "[1]", "result": 7.68}, {"measurement": "TUNEL response", "setting": "[2]", "result": "strongly induced"}]}
{"molecule": "CCOC(=O)c1c(NC(C)=O)sc2c(Cl)c(/C=N/O)ccc12", "note": "[SIM-2, ethyl 2-acetamido-7-chloro-6-(hydroxyiminomethyl)-1-benzothiophene-3-carboxylate]", "values": [{"measurement": "concentration of maximum cell death (LDH release)", "setting": "[1]", "result": 20, "unit": "nM"}, {"measurement": "pEC50", "setting": "[1]", "result": 7.74}, {"measurement": "TUNEL response", "setting": "[2]", "result": "strongly induced"}]}
